In PubChem BioAssay (NCI):
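Exposure lasted 48 hours, with cells grown in 96-well plates and compounds tested at five concentrations. GI50: concentration for 50% inhibition of growth. TGI: concentration producing complete growth inhibition.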

Columns and labels:
Assay in all cases: DTP human tumour cell line panel, 48 h
SK-MEL-2 melanoma = test system: SK-MEL-2 melanoma
U251 CNS = test system: U251 CNS
HOP-92 NSCLC = test system: HOP-92 NSCLC
HCT-116 colon = test system: HCT-116 colon
HL-60(TB) leukemia = test system: HL-60(TB) leukemia
MDA-MB-435 = test system: MDA-MB-435
SF-295 CNS = test system: SF-295 CNS
PC-3 prostate = test system: PC-3 prostate
NCI-H23 lung = test system: NCI-H23 lung
HOP-62 NSCLC = test system: HOP-62 NSCLC
SW-620 colon = test system: SW-620 colon
LOX IMVI melanoma = test system: LOX IMVI melanoma
COLO 205 colon = test system: COLO 205 colon
A549 NSCLC = test system: A549 NSCLC
NCI-H460 lung = test system: NCI-H460 lung
OVCAR-8 ovarian = test system: OVCAR-8 ovarian
SR leukemia = test system: SR leukemia
DU-145 prostate = test system: DU-145 prostate
UO-31 renal = test system: UO-31 renal
MCF7 breast = test system: MCF7 breast
BT-549 breast = test system: BT-549 breast
ACHN renal = test system: ACHN renal
MDA-MB-231 breast = test system: MDA-MB-231 breast
SK-MEL-28 melanoma = test system: SK-MEL-28 melanoma
TK-10 renal = test system: TK-10 renal
KM12 colon = test system: KM12 colon
786-0 renal = test system: 786-0 renal
OVCAR-4 ovarian = test system: OVCAR-4 ovarian
SF-268 CNS = test system: SF-268 CNS
NCI-H522 lung = test system: NCI-H522 lung
A498 renal = test system: A498 renal
OVCAR-5 ovarian = test system: OVCAR-5 ovarian
EKVX NSCLC = test system: EKVX NSCLC
SK-OV-3 ovarian = test system: SK-OV-3 ovarian
NCI-H226 lung = test system: NCI-H226 lung
OVCAR-3 ovarian = test system: OVCAR-3 ovarian
CCRF-CEM leukemia = test system: CCRF-CEM leukemia
HS 578T breast = test system: HS 578T breast
IGROV1 ovarian = test system: IGROV1 ovarian
RPMI-8226 leukemia = test system: RPMI-8226 leukemia
HCT-15 colon = test system: HCT-15 colon
UACC-62 melanoma = test system: UACC-62 melanoma
UACC-257 melanoma = test system: UACC-257 melanoma
SN12C renal = test system: SN12C renal
HCC-2998 colon = test system: HCC-2998 colon
MALME-3M melanoma = test system: MALME-3M melanoma
SK-MEL-5 melanoma = test system: SK-MEL-5 melanoma
SF-539 CNS = test system: SF-539 CNS
SNB-75 CNS = test system: SNB-75 CNS
K-562 leukemia = test system: K-562 leukemia
SNB-19 CNS = test system: SNB-19 CNS
HT29 colon = test system: HT29 colon
MOLT-4 leukemia = test system: MOLT-4 leukemia
CAKI-1 renal = test system: CAKI-1 renal
M14 melanoma = test system: M14 melanoma

**Q.** Which GI50 (SK-MEL-2 melanoma) does the source give for `COc1ccc2c(c1)OC1=C(C(=O)OC1)C2c1cc(OC)c2c(c1)OCO2` (stereo not given) here?
**A.** 40.5 nM

**Q.** What about the TGI (SK-MEL-2 melanoma) of the same molecule?
**A.** > 100000 nM

**Q.** What about the GI50 (U251 CNS) of the same molecule?
**A.** 42.9 nM

**Q.** And the TGI (U251 CNS)?
**A.** > 100000 nM

**Q.** And the GI50 (HOP-92 NSCLC)?
**A.** 28600 nM

**Q.** And the TGI (HOP-92 NSCLC)?
**A.** > 100000 nM

**Q.** And the GI50 (HCT-116 colon)?
**A.** 36.6 nM

**Q.** What about the TGI (HCT-116 colon) of the same molecule?
**A.** 7160 nM

**Q.** What about the GI50 (HL-60(TB) leukemia) of the same molecule?
**A.** 34.2 nM

**Q.** And the GI50 (MDA-MB-435)?
**A.** < 12.2 nM

**Q.** And the TGI (MDA-MB-435)?
**A.** 37.1 nM

**Q.** And the GI50 (SF-295 CNS)?
**A.** 28.3 nM

**Q.** And the TGI (SF-295 CNS)?
**A.** > 100000 nM

**Q.** What about the GI50 (PC-3 prostate) of the same molecule?
**A.** 40.3 nM

**Q.** And the TGI (PC-3 prostate)?
**A.** > 100000 nM

**Q.** What about the GI50 (NCI-H23 lung) of the same molecule?
**A.** 44.1 nM

**Q.** And the TGI (NCI-H23 lung)?
**A.** > 100000 nM

**Q.** What about the GI50 (HOP-62 NSCLC) of the same molecule?
**A.** 41.1 nM

**Q.** And the TGI (HOP-62 NSCLC)?
**A.** > 100000 nM

**Q.** What about the GI50 (SW-620 colon) of the same molecule?
**A.** 40.7 nM

**Q.** And the TGI (SW-620 colon)?
**A.** > 100000 nM

**Q.** And the GI50 (LOX IMVI melanoma)?
**A.** 68.3 nM

**Q.** What about the TGI (LOX IMVI melanoma) of the same molecule?
**A.** > 100000 nM

**Q.** What about the GI50 (COLO 205 colon) of the same molecule?
**A.** 31 nM

**Q.** And the TGI (COLO 205 colon)?
**A.** 90.8 nM

**Q.** And the GI50 (A549 NSCLC)?
**A.** 45.9 nM

**Q.** What about the TGI (A549 NSCLC) of the same molecule?
**A.** > 100000 nM

**Q.** And the GI50 (NCI-H460 lung)?
**A.** 37.4 nM

**Q.** What about the TGI (NCI-H460 lung) of the same molecule?
**A.** > 100000 nM

**Q.** And the GI50 (OVCAR-8 ovarian)?
**A.** 51.6 nM

**Q.** And the TGI (OVCAR-8 ovarian)?
**A.** > 100000 nM

**Q.** What about the GI50 (SR leukemia) of the same molecule?
**A.** 31.3 nM

**Q.** And the TGI (SR leukemia)?
**A.** > 100000 nM

**Q.** And the GI50 (DU-145 prostate)?
**A.** 36.4 nM

**Q.** What about the TGI (DU-145 prostate) of the same molecule?
**A.** 459 nM

**Q.** And the GI50 (UO-31 renal)?
**A.** 689 nM

**Q.** What about the TGI (UO-31 renal) of the same molecule?
**A.** > 100000 nM

**Q.** And the GI50 (MCF7 breast)?
**A.** 34.2 nM

**Q.** And the TGI (MCF7 breast)?
**A.** > 100000 nM

**Q.** And the TGI (BT-549 breast)?
**A.** > 100000 nM

**Q.** And the GI50 (ACHN renal)?
**A.** 267 nM

**Q.** What about the TGI (ACHN renal) of the same molecule?
**A.** > 100000 nM

**Q.** What about the GI50 (MDA-MB-231 breast) of the same molecule?
**A.** 68.9 nM

**Q.** And the TGI (MDA-MB-231 breast)?
**A.** > 100000 nM

**Q.** And the GI50 (SK-MEL-28 melanoma)?
**A.** 34.2 nM

**Q.** What about the TGI (SK-MEL-28 melanoma) of the same molecule?
**A.** > 100000 nM

**Q.** And the GI50 (TK-10 renal)?
**A.** 268 nM

**Q.** What about the TGI (TK-10 renal) of the same molecule?
**A.** > 100000 nM

**Q.** And the GI50 (KM12 colon)?
**A.** 30.4 nM

**Q.** And the TGI (KM12 colon)?
**A.** 416 nM

**Q.** And the GI50 (786-0 renal)?
**A.** 50.6 nM

**Q.** What about the TGI (786-0 renal) of the same molecule?
**A.** > 100000 nM

**Q.** What about the GI50 (OVCAR-4 ovarian) of the same molecule?
**A.** 59.7 nM

**Q.** What about the TGI (OVCAR-4 ovarian) of the same molecule?
**A.** > 100000 nM

**Q.** What about the GI50 (SF-268 CNS) of the same molecule?
**A.** 79.5 nM

**Q.** And the TGI (SF-268 CNS)?
**A.** > 100000 nM

**Q.** What about the GI50 (NCI-H522 lung) of the same molecule?
**A.** < 11.1 nM

**Q.** And the TGI (NCI-H522 lung)?
**A.** 47.2 nM

**Q.** What about the GI50 (A498 renal) of the same molecule?
**A.** 20.5 nM

**Q.** And the TGI (A498 renal)?
**A.** 92.3 nM

**Q.** What about the GI50 (OVCAR-5 ovarian) of the same molecule?
**A.** 153 nM

**Q.** And the TGI (OVCAR-5 ovarian)?
**A.** > 100000 nM

**Q.** What about the TGI (EKVX NSCLC) of the same molecule?
**A.** > 100000 nM

**Q.** And the GI50 (SK-OV-3 ovarian)?
**A.** 33.6 nM

**Q.** And the GI50 (NCI-H226 lung)?
**A.** 48.9 nM

**Q.** What about the GI50 (OVCAR-3 ovarian) of the same molecule?
**A.** 21.4 nM

**Q.** And the TGI (OVCAR-3 ovarian)?
**A.** 45.8 nM

**Q.** And the GI50 (CCRF-CEM leukemia)?
**A.** 37.8 nM

**Q.** What about the TGI (CCRF-CEM leukemia) of the same molecule?
**A.** > 100000 nM

**Q.** And the GI50 (HS 578T breast)?
**A.** 34.8 nM

**Q.** What about the TGI (HS 578T breast) of the same molecule?
**A.** > 100000 nM

**Q.** And the GI50 (IGROV1 ovarian)?
**A.** 71.6 nM

**Q.** And the TGI (IGROV1 ovarian)?
**A.** > 100000 nM

**Q.** And the GI50 (RPMI-8226 leukemia)?
**A.** 48.7 nM

**Q.** What about the TGI (RPMI-8226 leukemia) of the same molecule?
**A.** > 100000 nM

**Q.** And the GI50 (HCT-15 colon)?
**A.** 46.4 nM

**Q.** And the TGI (HCT-15 colon)?
**A.** > 100000 nM

**Q.** What about the GI50 (UACC-62 melanoma) of the same molecule?
**A.** 47.8 nM

**Q.** And the TGI (UACC-62 melanoma)?
**A.** > 100000 nM

**Q.** What about the GI50 (UACC-257 melanoma) of the same molecule?
**A.** > 46100 nM

**Q.** What about the TGI (UACC-257 melanoma) of the same molecule?
**A.** > 100000 nM

**Q.** What about the GI50 (SN12C renal) of the same molecule?
**A.** 102 nM

**Q.** What about the TGI (SN12C renal) of the same molecule?
**A.** > 100000 nM

**Q.** What about the GI50 (HCC-2998 colon) of the same molecule?
**A.** 42.4 nM

**Q.** And the TGI (HCC-2998 colon)?
**A.** > 35100 nM

**Q.** And the GI50 (MALME-3M melanoma)?
**A.** > 100000 nM

**Q.** And the TGI (MALME-3M melanoma)?
**A.** > 100000 nM

**Q.** And the GI50 (SK-MEL-5 melanoma)?
**A.** 38.3 nM

**Q.** What about the TGI (SK-MEL-5 melanoma) of the same molecule?
**A.** 325 nM

**Q.** And the GI50 (SF-539 CNS)?
**A.** 33.3 nM

**Q.** And the TGI (SF-539 CNS)?
**A.** > 100000 nM

**Q.** And the GI50 (SNB-75 CNS)?
**A.** 29.7 nM

**Q.** And the TGI (SNB-75 CNS)?
**A.** > 100000 nM

**Q.** And the GI50 (K-562 leukemia)?
**A.** 33 nM

**Q.** What about the TGI (K-562 leukemia) of the same molecule?
**A.** > 100000 nM

**Q.** And the GI50 (SNB-19 CNS)?
**A.** 53.1 nM

**Q.** What about the TGI (SNB-19 CNS) of the same molecule?
**A.** > 100000 nM

**Q.** What about the GI50 (HT29 colon) of the same molecule?
**A.** 32.8 nM

**Q.** What about the TGI (HT29 colon) of the same molecule?
**A.** > 100000 nM

**Q.** And the GI50 (MOLT-4 leukemia)?
**A.** 73.7 nM

**Q.** And the TGI (MOLT-4 leukemia)?
**A.** > 100000 nM

**Q.** And the GI50 (CAKI-1 renal)?
**A.** 108 nM

**Q.** What about the TGI (CAKI-1 renal) of the same molecule?
**A.** > 100000 nM

**Q.** What about the GI50 (M14 melanoma) of the same molecule?
**A.** 22.3 nM

**Q.** And the TGI (M14 melanoma)?
**A.** 55.2 nM
